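Dose response: 5 concentrations. Exposure: 48 h. Format: 96-well plates. Endpoint: linear interpolation; highest concentration if not reached. GI50 marks 50% less growth. TGI marks complete inhibition of growth.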
Legend:
Assay in all cases: DTP human tumour cell line panel, 48 h
786-0 renal = tested on: 786-0 renal
A498 renal = tested on: A498 renal
A549 NSCLC = tested on: A549 NSCLC
HCC-2998 colon = tested on: HCC-2998 colon
HCT-116 colon = tested on: HCT-116 colon
HOP-92 NSCLC = tested on: HOP-92 NSCLC
HT29 colon = tested on: HT29 colon
LOX IMVI melanoma = tested on: LOX IMVI melanoma
M14 melanoma = tested on: M14 melanoma
MOLT-4 leukemia = tested on: MOLT-4 leukemia
NCI-H23 lung = tested on: NCI-H23 lung
NCI-H522 lung = tested on: NCI-H522 lung
OVCAR-5 ovarian = tested on: OVCAR-5 ovarian
SF-268 CNS = tested on: SF-268 CNS
SK-MEL-2 melanoma = tested on: SK-MEL-2 melanoma
SNB-19 CNS = tested on: SNB-19 CNS
SW-620 colon = tested on: SW-620 colon
HL-60(TB) leukemia = tested on: HL-60(TB) leukemia

Row | Structure (SMILES) | TGI (786-0 renal) [µM] | TGI (A498 renal) [µM] | TGI (A549 NSCLC) [µM] | TGI (HCC-2998 colon) [µM] | TGI (HCT-116 colon) [µM] | TGI (HOP-92 NSCLC) [µM] | TGI (HT29 colon) [µM] | TGI (LOX IMVI melanoma) [µM] | TGI (M14 melanoma) [µM] | TGI (MOLT-4 leukemia) [µM] | TGI (NCI-H23 lung) [µM] | TGI (NCI-H522 lung) [µM] | TGI (OVCAR-5 ovarian) [µM] | TGI (SF-268 CNS) [µM] | TGI (SK-MEL-2 melanoma) [µM] | TGI (SNB-19 CNS) [µM] | TGI (SW-620 colon) [µM] | TGI (HL-60(TB) leukemia) [µM] | GI50 (SF-268 CNS) [nM]
1 | CCOC(=O)CCC(NC(=O)c1ccc(NC(OC)c2nc3cc(C(F)(F)F)ccc3nc2-c2ccccc2)cc1)C(=O)OCC (centres undefined) | 26.6 | 34.5 | 39.4 | 30 | 9.35 | 30.3 | 22.1 | 23.4 | 29 | > 24.1 | 31.5 | 25.6 | 31.5 | 30.9 | 33.1 | 27.5 | 20.7 | – | –
2 | CCOC(=O)C1=C(OC(OCC)C(CC)[Se]c2ccccc2)CCC1 (centres undefined) | 30.5 | > 100 | > 100 | > 100 | > 100 | 45.8 | 58.1 | 20.5 | 31.6 | 73.5 | 27.5 | 29.1 | 69.6 | 36.8 | > 100 | > 100 | – | 39.1 | –
3 | CN1CCc2ccccc2C(C(=O)c2ccc3c(c2)OCO3)C1=O (centres undefined) | > 100 | > 100 | > 100 | – | > 100 | > 100 | > 100 | > 100 | > 100 | > 100 | > 100 | > 100 | – | > 100 | > 100 | > 100 | > 100 | > 100 | –
4 | Cc1ccc(-c2cc(-c3ccccc3)c(C#N)c(=O)[nH]2)cc1 | > 100 | > 100 | > 100 | > 100 | > 100 | > 100 | > 100 | > 100 | > 100 | > 100 | > 100 | > 100 | > 100 | > 100 | – | > 100 | > 100 | > 100 | –
5 | COc1cc([C@@H]2c3cc4c(cc3[C@@H](NCc3cccc(C#N)c3)C3COC(=O)[C@@H]32)OCO4)cc(OC)c1O (some centres undefined) | 2.62 | 4.27 | 1.91 | 4.51 | 21.4 | 9.83 | 5.51 | 8.36 | 6.22 | 1.43 | 1.76 | 3.56 | 14.6 | > 100 | 8.78 | 7.74 | 11.1 | 1.51 | –
6 | C=C1C2=C(CCCC2)C(=O)OC12CCCCC2 | > 100 | – | > 100 | > 100 | > 100 | 77.9 | > 100 | > 100 | > 100 | > 100 | > 100 | > 100 | > 100 | > 100 | > 100 | > 100 | > 100 | > 100 | –
7 | OCC(O)C(O)C(O)c1nn(-c2ccc(F)cc2)c2nc3cc(Cl)c(Cl)cc3nc12 (centres undefined) | 81.9 | – | 32 | > 100 | > 100 | – | > 100 | 76.5 | 91.8 | 48.4 | 48 | 31.4 | > 100 | 43.3 | 39.2 | 38 | > 100 | > 100 | –
8 | COc1ccc(/C=C\c2cc(OC)c(OC)c(OC)c2)cc1 | > 100 | 13.2 | > 100 | – | > 100 | – | 13.6 | – | > 100 | 3.09 | 0.0118 | 0.00151 | 90.8 | > 100 | > 100 | – | – | – | 44.3
9 | Cc1cc(C)nc(NS(=O)(=O)c2ccc(Nc3c4ccccc4nc4c(C(=O)NCCN(C)C)cccc34)cc2)n1 | 25.2 | – | 16.1 | – | 15.5 | – | 14.3 | 11.7 | 20.4 | 1.61 | 21.5 | 4.28 | 29.4 | 20.1 | 19.1 | 10.7 | 15.2 | 4.82 | –
10 | C1CCCN(NC2=NCCO2)CC1 | > 100 | > 100 | > 100 | > 100 | > 100 | – | > 100 | > 100 | > 100 | > 100 | > 100 | > 100 | > 100 | – | > 100 | > 100 | > 100 | > 100 | –
11 | CCCNCCCCC(NC(C)=O)C(=O)NCc1ccccc1 (centres undefined) | > 100 | > 100 | > 100 | > 100 | > 100 | > 100 | > 100 | > 100 | > 100 | > 100 | > 100 | > 100 | > 100 | > 100 | > 100 | > 100 | > 100 | – | –

— PubChem BioAssay (NCI)
